The numbers were not newly measured in patent publication US20050221347A1, “Inhibitors of binding between proteins and macromolecular ligands” (Thrasos, Inc., priority 1999, published 2005), which cites them from elsewhere.

Each structure is given as a SMILES string.

For the data set, the target named is alpha subunit of the interleukin-2 receptor (Homo sapiens, UniProt P60568).
Sequence of alpha subunit of the interleukin-2 receptor (P60568 21-153): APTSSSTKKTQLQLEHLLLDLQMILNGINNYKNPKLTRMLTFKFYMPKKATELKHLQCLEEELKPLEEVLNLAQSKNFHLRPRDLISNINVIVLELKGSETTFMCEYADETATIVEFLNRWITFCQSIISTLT

`COC(=O)[C@H](Cc1ccc(C#Cc2ccccc2)cc1)NC(=O)C[C@H]1CCCN(C(=N)N)C1` [Structural Formula (I)]: the equilibrium dissociation constant (Kd) (binding to the alpha subunit of the interleukin-2 receptor, described in Tilley et al., J. Am. Chem. Soc 119:7589 (1997)) was approximately 3 µM. In addition, the “inhibition of binding of interleukin 2 to the interleukin-2 receptor” value (result in words, Tilley et al. 1997) is “inhibits the binding of interleukin 2”.
